Measurements: patent US10954253B2, “1,2-dihydro-3H-pyrazolo[3,4-d]pyrimidin-3-one derivative as Wee1 inhibitor” (SHIJIAZHUANG SAGACITY NEW DRUG DEVELOPMENT CO., LTD., priority 2017, dated 2021)

The compounds below were run against Wee1 (Homo sapiens (Human), UniProt P30291) (assay: In vitro enzymatic inhibitory activity (33P-ATP filter-binding kinase assay, MBP substrate)). Conditions: Wee-1 150 nM, MBP 20 μM.
Format: biochemical
Method: The compounds of the present invention for experimental use were all self-prepared, and their chemical names and structural formulas are shown in the preparation embodiments of the respective compounds. The experimental tests were carried out in Reaction Biology Corporation, USA, and the experimental results were provided by the company. Basic reaction buffer: 20 mM hydroxyethylpiperazine ethanesulfuric acid (pH 7.5), 10 mM magnesium chloride, 1 mM EGTA, 0.02% Brij35, 0.02 mg/mL bovine serum albumin, 0.1 mM Na3VO4, 2 mM DTT, 1% DMSO Enzyme: Wee-1 concentration is 150 nM Matrix: MBP concentration is 20 μM The tested compound was formulated into a 5 mM solution with 100% DMSO, and a 10 points 3-fold gradient dilution was performed with DMSO through an automated pipetting station epMotion 5070. 1. Fresh matrix configuration reaction buffer was prepared; 2. The Wee-1 was added into the matrix solution and shaked gently; 3. DMSO solution of the compound were added into the kinase reaction mixture using an acoustic technique (Echo 550; nanoliter range) and incubated for 20 minutes at room temperature; 4. ^33P-ATP (specific activity, 10 μCi/μL) was added into the reaction mixture to stimulate the reaction; 5. Incubated for 2 hours at room temperature; 6. Kinase activity was detected by filter-binding method.

Wee1, sequence (P30291 whole entry): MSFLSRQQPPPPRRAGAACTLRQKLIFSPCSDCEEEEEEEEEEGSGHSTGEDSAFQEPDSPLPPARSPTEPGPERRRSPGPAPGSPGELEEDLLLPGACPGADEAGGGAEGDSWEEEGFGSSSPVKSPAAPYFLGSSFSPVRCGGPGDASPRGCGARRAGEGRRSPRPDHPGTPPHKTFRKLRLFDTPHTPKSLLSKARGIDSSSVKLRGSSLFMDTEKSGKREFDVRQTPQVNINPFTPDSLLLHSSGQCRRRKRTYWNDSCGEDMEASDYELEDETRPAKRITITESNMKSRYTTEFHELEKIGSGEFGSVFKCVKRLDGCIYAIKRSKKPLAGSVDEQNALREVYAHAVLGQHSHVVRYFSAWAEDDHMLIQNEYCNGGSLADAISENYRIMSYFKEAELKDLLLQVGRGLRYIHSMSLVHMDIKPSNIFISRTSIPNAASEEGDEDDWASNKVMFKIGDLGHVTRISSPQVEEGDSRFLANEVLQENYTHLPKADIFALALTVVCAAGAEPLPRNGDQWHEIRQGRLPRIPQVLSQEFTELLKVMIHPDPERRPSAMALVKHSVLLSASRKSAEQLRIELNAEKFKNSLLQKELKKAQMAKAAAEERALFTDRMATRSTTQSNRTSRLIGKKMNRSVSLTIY

Compared with `C=CCn1c(=O)c2cnc(Nc3ccc(N4CCC5(CCN(C)CC5)CC4)cc3)nc2n1-c1ccsc1` [Embodiment 8, 2-allyl-6-((4-(9-methyl-3,9-diazaspiro[5.5]undecan-3-yl)phenyl)amino)-1-(thiophen-3-yl)-1H-pyrazolo[3,4-d]pyrimidin-3(2H)-one], `C=CCn1c(=O)c2cnc(Nc3ccc(N4CCC5(CCN(C)CC5)CC4)cc3)nc2n1-c1ccc(Cl)cc1` [Embodiment 12, 2-allyl-1-(4-chlorophenyl)-6-((4-(9-methyl-3,9-diazaspiro[5.5]undecan-3-yl)phenyl)amino)-1H-pyrazolo[3,4-d]pyrimidin-3(2H)-one] is 2.1-fold lower in IC50: 51.9 nM for the first, 25.3 nM for the second. The second is the more potent here.

Compared with `C=CCn1c(=O)c2cnc(Nc3ccc(N4CCC5(CCNCC5)CC4)cc3)nc2n1-c1ccccc1` [Embodiment 2, 6-((4-(3,9-diazaspiro[5.5]undecan-3-yl)phenyl)amino)-2-allyl-1-phenyl-1H-pyrazolo[3,4-d]pyrimidin-3(2H)-one], `C=CCn1c(=O)c2cnc(Nc3ccc(N4CCC5(CCNCC5)CC4)cc3)nc2n1-c1cccc(C(C)(C)O)n1` [Compound 76, 6-((4-(-3,9-diazaspiro[5.5]undecan-3-yl)phenyl)amino)-2-allyl-1-(6-(2-hydroxypropan-2-yl)pyridin-2-yl)-1H-pyrazolo[3,4-d]pyrimidin-3(2H)-one] is 3.4-fold lower in IC50: 43.6 nM for the first, 13 nM for the second. The second is the more potent here.

Compared with `CCn1c(=O)c2cnc(Nc3ccc(N4CCC5(CCN(C)CC5)CC4)cc3)nc2n1-c1ccccc1` [Embodiment 19, 2-ethyl-6-((4-(9-methyl-3,9-diazaspiro[5.5]undecan-3-yl)phenyl)amino)-1-phenyl-1H-pyrazolo[3,4-d](2H)-one], `CN1CCC2(CC1)CCN(c1ccc(Nc3ncc4c(=O)n(C)n(-c5ccccc5)c4n3)cc1)CC2` [Embodiment 18, 2-methyl-6-((4-(9-methyl-3,9-diazaspiro[5.5]undecane-3-yl)phenyl)amino)-1-phenyl-1H-pyrazolo[3,4-d](2H)-one] is 1.6-fold higher in IC50: 83.2 nM for the first, 131 nM for the second.

Compared with `C=CCn1c(=O)c2cnc(Nc3ccc(N4CCC5(CCN(C)CC5)CC4)cc3)nc2n1-c1cccc(C(N)=O)n1` [Embodiment 13, 6-(2-allyl-6-((4-(9-methyl-3,9-diazaspiro[5.5]undecan-3-yl)phenyl)amino)-3-oxo-2,3-dihydro-1H-pyrazolo[3,4-d]pyrimidin-1-yl)picolinamide], `C=CCn1c(=O)c2cnc(Nc3ccc(N4CCC5(CCN(C)CC5)CC4)cc3)nc2n1-c1cccc(Cl)n1` [Embodiment 25, 2-allyl-1-(6-chloropyridin-2-yl)-6-((4-(9-methyl-3,9-diazaspiro[5.5]undecan-3-yl)phenyl)amino)-1H-pyrazolo[3,4-d]pyrimidin-3(2H)-one] is 2.1-fold lower in IC50: 42 nM for the first, 20.4 nM for the second. The second is the more potent here.

`C=CCn1c(=O)c2cnc(Nc3ccc(N4CCC5(CCN(C)CC5)CC4)cc3)nc2n1-c1cccc(N2CC(F)(F)C2)n1` [Compound 72] and `C=CCn1c(=O)c2cnc(Nc3ccc(N4CCC5(CCN(C)CC5)CC4)cc3)nc2n1-c1cccc(C2CC2)n1` [Embodiment 45, 2-allyl-1-(6-cyclopropylpyridin-2-yl)-6-((4-(9-methyl-3,9-diazaspiro[5.5]undecan-3-yl)phenyl)amino)-1H-pyrazolo[3,4-d]pyrimidin-3(2H)-one] are within 1.5-fold of each other in IC50: 8.2 nM for the first, 7.4 nM for the second.

First: C=CCn1c(=O)c2cnc(Nc3ccc(N4CCC5(CCN(C)CC5)CC4)cc3)nc2n1-c1ccccn1 [Embodiment 3, 2-allyl-6-((4-(9-methyl-3,9-diazaspiro[5.5]undecan-3-yl)phenyl)amino)-1-(pyridin-2-yl)-1H-pyrazolo[3,4-d]pyrimidin-3(2H)-one]
Second: C=CCn1c(=O)c2cnc(Nc3ccc(N4CCC5(CCN(C)CC5)CC4)cc3)nc2n1-c1cccc(C(C)(F)F)n1 [Embodiment 49, 2-allyl-1-(6-(1,1-difluoroethyl)pyridin-2-yl)-6-((4-(9-methyl-3,9-diazaspiro[5.5]undecan-3-yl)phenyl)amino)-1H-pyrazolo[3,4-d]pyrimidin-3(2H)-one]
The IC50 of the first is 7.9-fold higher: 24.6 nM for the first, 3.1 nM for the second.

`CCCn1c(=O)c2cnc(Nc3ccc(N4CCC5(CCN(C)CC5)CC4)cc3)nc2n1-c1cccc(C(C)(C)O)n1` [Embodiment 24, 1-(6-(2-hydroxypropan-2-yl)pyridin-2-yl)-6-((4-(9-methyl-3,9-diazaspiro[5.5]undecan-3-yl)phenyl)amino)-2-propyl-1H-pyrazolo[3,4-d]pyrimidin-3(2H)-one] and `C=C(F)Cn1c(=O)c2cnc(Nc3ccc(N4CCC5(CCN(C)CC5)CC4)cc3)nc2n1-c1cccc(C(C)(C)O)n1` [Compound 79, 2-(2-fluoroallyl)-1-(6-(2-hydroxypropan-2-yl)pyridin-2-yl)-6-((4-(9-methyl-3,9-diazaspiro[5.5]undecan-3-yl)phenyl)amino)-1H-pyrazolo[3,4-d]pyrimidin-3(2H)-one] are within 1.5-fold of each other in IC50: 48.8 nM for the first, 43 nM for the second.

`C=CCn1c(=O)c2cnc(Nc3ccc(N4CCC5(CCN(C)CC5)CC4)cc3)nc2n1-c1cccc(O[C@H]2CCOC2)n1` [Embodiment 55, (S)-2-allyl-6-((4(9-methyl-3,9-diazaspiro[5.5]undecan-3-yl)phenyl)amino)-1-(6-((tetrahydrofuran-3-yl)oxy)pyridin-2-yl)-1H-pyrazolo[3,4-d]pyrimidin-3(2H)-one] and `C=CCn1c(=O)c2cnc(Nc3ccc(N4CCC5(CCN(C)CC5)CC4)cc3)nc2n1-c1cccc(OC2COC2)n1` [Embodiment 53, 2-allyl-6-((4(9-methyl-3,9-diazaspiro[5.5]undecan-3-yl)phenyl)amino)-1-(6-(oxetan-3-yloxy)pyridin-2-yl)-1H-pyrazolo[3,4-d]pyrimidin-3(2H)-one] are within 1.5-fold of each other in IC50: 90 nM for the first, 63 nM for the second.

First: C=CCn1c(=O)c2cnc(Nc3ccc(N4CCC5(CCN(C)CC5)CC4)cc3)nc2n1-c1cccc(C(=O)NC)c1 [Embodiment 17, 3-(2-allyl-6-((4-(9-methyl-3,9-diazaspiro[5.5]undecan-3-yl)phenyl)amino)-3-oxo-2,3-dihydro-1H-pyrazolo[3,4-d]pyrimidin-1-yl)-N-methylbenzamide]
Second: C=CCn1c(=O)c2cnc(Nc3ccc(N4CCC5(CCN(C)CC5)CC4)cc3)nc2n1-c1cccc(C(C)(O)C(F)(F)F)n1 (centres unmarked) [Embodiment 41, 2-allyl-6-((4-(9-methyl-3,9-diazaspiro[5.5]undecan-3-yl)phenyl)amino)-1-(6-(1,1,1-trifluoro-2-hydroxypropan-2-yl)pyridin-2-yl)-1H-pyrazolo[3,4-d]pyrimidin-3(2H)-one]
The IC50 of the first is 3.2-fold higher: 42.5 nM for the first, 13.1 nM for the second. The second is the more potent here.

First: C=CCn1c(=O)c2cnc(Nc3ccc(N4CCC5(CCN(C)CC5)CC4)cc3)nc2n1-c1cccc(N2CCOC2=O)n1 [Embodiment 57, 3-(6-(2-allyl-6((4-(9-methyl-3,9-diazaspiro[5.5]undecan-3-yl)phenyl)amino)-3-oxo-2,3-dihydro-1H-pyrazolo[3,4-d]pyrimidin-1-yl)pyridin-2-yl)oxazolidin-2one]
Second: C=CCn1c(=O)c2cnc(Nc3ccc(N4CCC5(CCN(C)CC5)CC4)cc3)nc2n1-c1cccc(N2CCCC2=O)n1 [Embodiment 44]
The IC50 of the first is 3.7-fold higher: 47 nM for the first, 12.6 nM for the second. The second is the more potent here.

Compared with `C=CCn1c(=O)c2cnc(Nc3ccc(N4CCC5(CCN(C)CC5)CC4)cc3)nc2n1-c1cccc(OC2CCC2)n1` [Embodiment 54, 2-allyl-1-(6-cyclobutoxypyridin-2-yl)-6-((4-(9-methyl-3,9-diazaspiro[5.5]undecan-3-yl)phenyl)amino)-1H-pyrazolo[3,4-d]pyrimidin-3(2H)-one], `C=CCn1c(=O)c2cnc(Nc3ccc(N4CCC5(CCN(C(=O)OC)CC5)CC4)cc3)nc2n1-c1cccc(C2(O)COC2)n1` [Compound 71, methyl-9-(4-((2-allyl-1-(6-(3-hydroxyoxetan-3-yl)pyridin-2-yl)-3-oxo-2,3-dihydro-1H-pyrazolo[3,4-d]pyrimidin-6-yl)amino)phenyl)-3,9-diazaspiro[5.5]undecan-3-carboxylate] is 3.6-fold lower in IC50: 57 nM for the first, 15.7 nM for the second.

First: C=CCn1c(=O)c2cnc(Nc3ccc(N4CCC5(CCN(CCC#N)CC5)CC4)cc3)nc2n1-c1cccc(C(C)(C)O)n1 [Embodiment 62, 3-(9-(4((2-allyl-1(6-(2-hydroxypropan-2-yl)pyridin-2-yl)-3-oxo-2,3-dihydro-1H-pyrazolo[3,4-d]pyrimidin-6-yl)amino)phenyl)-3,9-diazaspiro[5.5]undecan-3-yl)propionitrile]
Second: C=CCn1c(=O)c2cnc(Nc3ccc(N4CCC5(CCN(CC#N)CC5)CC4)cc3)nc2n1-c1cccc(C(C)(C)O)n1 [Compound 63, 2-(9-(4((2-allyl-1(6-(2-hydroxypropan-2-yl)pyridin-2-yl)-3-oxo-2,3-dihydro-1H-pyrazolo[3,4-d]pyrimidin-6-yl)amino)phenyl)-3,9-diazaspiro[5.5]undecan-3-yl)acetonitrile]
The IC50 of the first is 4.3-fold higher: 36.1 nM for the first, 8.3 nM for the second.

Compared with `C=CCn1c(=O)c2cnc(Nc3ccc(N4CCC5(CCN(C)CC5)CC4)c(OC)c3)nc2n1-c1cccc(C(C)(C)O)n1` [Embodiment 38, 2-allyl-1-(6-(2-hdyroxypropan-2-yl)pyridin-2-yl)-6((3-methoxy-4-(9-methyl-3,9-diazaspiro[5.5]undecan-3-yl)phenyl)amino)-1H-pyrazolo[3,4-d]pyrimidine-3(2H)-one], `C=CCn1c(=O)c2cnc(Nc3ccc(N4CCC5(CCNCC5)CC4)cc3)nc2n1-c1cccc(C2(F)COC2)n1` [Compound 77, 6-((4-(-3,9-diazaspiro[5.5]undecan-3-yl)phenyl)amino)-2-allyl-1-(6-(3-fluoro-oxetan-3-yl)pyridin-2-yl)-1H-pyrazolo[3,4-d]pyrimidin-3(2H)-one] is 2.3-fold lower in IC50: 20.7 nM for the first, 9 nM for the second. The second is the more potent here.
